{
  "source": "ChEMBL document CHEMBL1201862",
  "about": "“PubChem BioAssay data set” (2004)",
  "key": {"Hexokinase-1": {"molecular_target": "Hexokinase-1 (Homo sapiens, UniProt P19367)", "sequence (P19367 whole entry)": "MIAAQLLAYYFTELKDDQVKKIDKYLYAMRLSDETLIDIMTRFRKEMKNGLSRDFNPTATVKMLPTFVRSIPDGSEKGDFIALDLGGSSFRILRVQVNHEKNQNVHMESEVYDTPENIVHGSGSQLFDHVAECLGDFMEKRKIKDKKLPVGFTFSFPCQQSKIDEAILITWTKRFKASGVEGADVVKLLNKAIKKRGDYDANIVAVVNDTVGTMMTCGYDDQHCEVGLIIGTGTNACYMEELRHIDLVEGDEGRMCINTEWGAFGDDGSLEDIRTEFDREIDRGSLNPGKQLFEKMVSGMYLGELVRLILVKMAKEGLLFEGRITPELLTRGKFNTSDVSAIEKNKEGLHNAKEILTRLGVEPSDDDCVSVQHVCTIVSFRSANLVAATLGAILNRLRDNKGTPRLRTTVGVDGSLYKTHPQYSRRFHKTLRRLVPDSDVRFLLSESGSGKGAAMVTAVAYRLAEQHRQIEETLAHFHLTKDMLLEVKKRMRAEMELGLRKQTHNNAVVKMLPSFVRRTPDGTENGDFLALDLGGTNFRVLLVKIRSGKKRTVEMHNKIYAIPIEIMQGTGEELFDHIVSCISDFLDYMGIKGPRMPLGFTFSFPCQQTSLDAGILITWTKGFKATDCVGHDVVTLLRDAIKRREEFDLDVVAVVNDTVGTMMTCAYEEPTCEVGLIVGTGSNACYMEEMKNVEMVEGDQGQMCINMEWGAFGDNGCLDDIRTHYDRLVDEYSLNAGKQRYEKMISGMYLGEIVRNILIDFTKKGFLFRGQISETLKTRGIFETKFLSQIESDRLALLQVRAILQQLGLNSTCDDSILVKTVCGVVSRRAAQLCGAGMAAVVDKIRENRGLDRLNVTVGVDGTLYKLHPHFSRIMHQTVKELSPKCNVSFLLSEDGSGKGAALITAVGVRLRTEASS", "experiment": "hexokinase 1 activity inhibitors, potency – biochemical, set 2, resazurin fluorescence coupled readout, selectivity assay for HKDC1 inhibitor project, SAR follow-up (AID 588356)", "format": "functional"}, "Hexokinase HKDC1": {"molecular_target": "Hexokinase HKDC1 (Homo sapiens, UniProt Q2TB90)", "sequence (Q2TB90 whole entry)": "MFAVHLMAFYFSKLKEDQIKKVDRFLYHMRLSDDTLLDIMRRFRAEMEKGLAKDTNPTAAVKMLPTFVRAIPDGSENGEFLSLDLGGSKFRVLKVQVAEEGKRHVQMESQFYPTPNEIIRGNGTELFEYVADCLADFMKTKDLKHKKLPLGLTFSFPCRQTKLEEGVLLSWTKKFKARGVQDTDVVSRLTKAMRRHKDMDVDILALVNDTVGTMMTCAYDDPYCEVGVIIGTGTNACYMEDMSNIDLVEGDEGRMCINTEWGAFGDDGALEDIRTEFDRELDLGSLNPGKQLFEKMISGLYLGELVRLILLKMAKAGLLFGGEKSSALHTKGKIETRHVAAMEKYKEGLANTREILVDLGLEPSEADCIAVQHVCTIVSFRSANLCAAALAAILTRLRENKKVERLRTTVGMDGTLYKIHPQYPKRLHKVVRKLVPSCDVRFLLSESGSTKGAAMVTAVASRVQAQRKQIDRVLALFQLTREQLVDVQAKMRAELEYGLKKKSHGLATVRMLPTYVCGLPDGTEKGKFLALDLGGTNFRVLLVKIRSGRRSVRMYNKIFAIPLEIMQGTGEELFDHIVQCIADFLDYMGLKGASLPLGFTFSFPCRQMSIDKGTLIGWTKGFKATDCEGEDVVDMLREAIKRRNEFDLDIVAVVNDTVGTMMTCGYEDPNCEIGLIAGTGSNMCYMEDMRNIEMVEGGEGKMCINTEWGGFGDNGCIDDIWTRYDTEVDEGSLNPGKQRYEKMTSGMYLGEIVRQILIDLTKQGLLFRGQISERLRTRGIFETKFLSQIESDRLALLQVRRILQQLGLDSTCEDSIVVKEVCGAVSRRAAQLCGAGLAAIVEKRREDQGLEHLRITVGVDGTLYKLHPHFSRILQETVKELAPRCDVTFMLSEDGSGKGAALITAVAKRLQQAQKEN", "experiment": "analog inhibition of human HKDC1 activity – biochemical, set 2, SAR follow-up (AID 588355)", "format": "functional"}, "[1]": {"molecular_target": "Apoptotic protease-activating factor 1 (Homo sapiens, UniProt O14727)", "sequence (O14727 whole entry)": "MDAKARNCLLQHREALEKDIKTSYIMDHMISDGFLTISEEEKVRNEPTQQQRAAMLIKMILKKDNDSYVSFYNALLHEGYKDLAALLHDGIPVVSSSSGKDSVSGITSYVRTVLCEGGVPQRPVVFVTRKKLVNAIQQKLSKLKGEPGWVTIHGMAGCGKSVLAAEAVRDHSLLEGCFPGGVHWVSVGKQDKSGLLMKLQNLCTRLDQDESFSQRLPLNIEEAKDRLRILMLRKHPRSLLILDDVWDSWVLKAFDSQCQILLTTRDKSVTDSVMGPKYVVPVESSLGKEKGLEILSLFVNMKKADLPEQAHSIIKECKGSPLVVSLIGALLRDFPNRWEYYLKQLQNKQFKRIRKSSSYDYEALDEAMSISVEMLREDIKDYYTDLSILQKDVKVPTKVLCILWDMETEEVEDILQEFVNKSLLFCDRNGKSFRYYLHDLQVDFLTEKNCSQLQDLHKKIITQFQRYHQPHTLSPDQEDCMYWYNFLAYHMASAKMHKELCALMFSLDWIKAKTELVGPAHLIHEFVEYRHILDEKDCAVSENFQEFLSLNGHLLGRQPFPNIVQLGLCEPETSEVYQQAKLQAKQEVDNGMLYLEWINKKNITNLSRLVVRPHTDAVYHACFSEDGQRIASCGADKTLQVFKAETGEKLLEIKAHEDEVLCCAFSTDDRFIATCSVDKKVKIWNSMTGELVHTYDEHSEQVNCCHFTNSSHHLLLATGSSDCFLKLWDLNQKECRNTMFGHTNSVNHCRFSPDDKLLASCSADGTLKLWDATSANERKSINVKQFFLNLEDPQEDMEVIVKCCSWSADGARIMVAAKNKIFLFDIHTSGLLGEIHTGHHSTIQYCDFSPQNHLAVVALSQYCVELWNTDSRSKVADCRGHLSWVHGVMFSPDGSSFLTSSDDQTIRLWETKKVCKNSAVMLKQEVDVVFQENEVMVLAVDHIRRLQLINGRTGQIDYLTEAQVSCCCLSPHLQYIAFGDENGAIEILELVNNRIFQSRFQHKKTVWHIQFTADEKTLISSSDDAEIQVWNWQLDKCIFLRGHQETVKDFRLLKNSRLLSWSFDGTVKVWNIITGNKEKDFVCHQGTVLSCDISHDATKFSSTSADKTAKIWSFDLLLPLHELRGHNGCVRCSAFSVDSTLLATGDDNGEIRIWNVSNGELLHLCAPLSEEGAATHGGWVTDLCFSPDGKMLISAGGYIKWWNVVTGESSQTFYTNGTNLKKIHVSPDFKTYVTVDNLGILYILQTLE", "format": "functional"}, "HEK293": {"system": "HEK293", "experiment": "EBV LMP1 TES2 canonical NF-kB signalling blockers – cell-based, HEK293, luciferase, cherry-pick, dose response (AID 588343)", "format": "functional", "settings": "Homo sapiens"}, "[2]": {"experiment": "HEK-293T viability loss, compound-treated – cell-based, uHTS hits, cytotoxicity control for B/T-cell NF-kB inhibitor project, dose response (AID 489019);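 further: IC50 reflects cytotoxicity as loss of cell viability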", "format": "functional"}, "INS1 [3]": {"system": "INS1", "experiment": "INS-1E survival protection against cytokine death – cell-based, luminescence, retest, dose response (AID 449756);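 further: cell death triggered by IL-1 beta plus TNF-alpha plus IFN-gamma mixture; protective hits raise ATP signal compared with cytokine alone wells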", "format": "functional", "settings": "Rattus norvegicus"}, "[4]": {"experiment": "alpha-synuclein stem-loop luciferase translation blockers – H4 neuroglioma cells, luminescence, confirmation (AID 1988)", "format": "functional, cell-based"}, "Jurkat": {"system": "Jurkat", "experiment": "blockers of NF-kB activation in T cells – Jurkat, luciferase reporter, luminescence, B- and T-cell, dose response (AID 489004);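 further: NF-kB luciferase reporter Jurkat cells stimulated with PMA plus ionomycin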", "format": "functional, cell-based", "settings": "Homo sapiens"}, "cells": {"experiment": "cells", "format": "functional, cell-based", "settings": "HEK-CNG"}, "[5]": {"experiment": "NIH-3T3 fibroblast cytotoxicity, dose response, cytotoxicity control, cell-based, fluorescence, Alamar Blue, secondary assay (AID 2327);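 further: NIH-3T3 mouse fibroblasts cultured with fluconazole at 8 µg/mL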", "format": "functional"}, "[6]": {"experiment": "reduction of Shn3 3'UTR-driven luciferase in osteoblasts – cell-based, Clone20 osteoblasts, firefly luciferase, cherry-picked, dose response (AID 624132)", "format": "functional"}, "Galanin receptor type 3": {"molecular_target": "T1, Galanin receptor type 3 (Homo sapiens, UniProt O60755)", "T1 sequence (O60755 whole entry)": "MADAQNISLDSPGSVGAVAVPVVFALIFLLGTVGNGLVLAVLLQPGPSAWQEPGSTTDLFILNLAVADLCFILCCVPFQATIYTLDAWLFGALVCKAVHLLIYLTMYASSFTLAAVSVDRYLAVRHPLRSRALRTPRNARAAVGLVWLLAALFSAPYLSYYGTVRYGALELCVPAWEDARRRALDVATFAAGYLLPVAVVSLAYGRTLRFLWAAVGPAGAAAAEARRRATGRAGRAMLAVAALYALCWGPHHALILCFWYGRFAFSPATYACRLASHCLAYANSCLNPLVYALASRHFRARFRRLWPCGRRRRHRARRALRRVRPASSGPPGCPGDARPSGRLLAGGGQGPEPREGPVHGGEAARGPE", "experiment": "Fluorescence-based cell-based primary high throughput dose response assay to identify antagonists of the Galanin Receptor 3 (GalR3).", "format": "functional"}, "[7]": {"molecular_target": "COUP transcription factor 2 (Homo sapiens, UniProt P24468)", "sequence (P24468 whole entry)": "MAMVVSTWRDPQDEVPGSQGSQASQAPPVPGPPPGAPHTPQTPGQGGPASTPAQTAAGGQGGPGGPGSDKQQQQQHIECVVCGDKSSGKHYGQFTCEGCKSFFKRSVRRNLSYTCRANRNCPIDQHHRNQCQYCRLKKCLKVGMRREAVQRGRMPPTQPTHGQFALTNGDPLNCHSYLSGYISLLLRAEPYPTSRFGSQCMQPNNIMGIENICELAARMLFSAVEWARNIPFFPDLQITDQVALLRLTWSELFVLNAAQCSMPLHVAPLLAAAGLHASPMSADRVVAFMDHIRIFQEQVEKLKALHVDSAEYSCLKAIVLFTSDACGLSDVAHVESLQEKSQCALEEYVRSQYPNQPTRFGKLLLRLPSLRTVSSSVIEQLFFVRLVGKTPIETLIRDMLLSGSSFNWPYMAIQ", "experiment": "Luminescence-based cell-based high throughput dose response assay to identify inhibitors of COUP-TFII (NR2F2).", "format": "functional"}, "[8]": {"experiment": "non-specific 3'UTR reporter inhibition in Clone20-Shn3RL – cell-based, Renilla luciferase, cherry-picked, counter-screen for Shn3 inhibitor project, dose response (AID 624133)", "format": "functional"}, "[9]": {"experiment": "luciferase reporter signal suppression in cells – H4 neuroglioma cells, luminescence, dose response (AID 1990)", "format": "functional, cell-based"}, "[10]": {"experiment": "fluconazole-exposed Candida albicans growth modulators – fluorescence, retest, confirmation (AID 2467)", "format": "functional, cell-based"}, "[11]": {"experiment": "loss of viability in HepG2 cells – cell-based, CellTiter-Glo, cherry-picked, cytotoxicity control for Shn3 inhibitor project, dose response (AID 624134)", "format": "functional"}, "[12]": {"molecular_target": "T2, Serine/threonine-protein phosphatase (Candida dubliniensis (strain CD36 / CBS 7987 / NCPF 3949 / NRRLY-17841) (Yeast), UniProt B9W6M3)", "T2 sequence (B9W6M3 whole entry)": "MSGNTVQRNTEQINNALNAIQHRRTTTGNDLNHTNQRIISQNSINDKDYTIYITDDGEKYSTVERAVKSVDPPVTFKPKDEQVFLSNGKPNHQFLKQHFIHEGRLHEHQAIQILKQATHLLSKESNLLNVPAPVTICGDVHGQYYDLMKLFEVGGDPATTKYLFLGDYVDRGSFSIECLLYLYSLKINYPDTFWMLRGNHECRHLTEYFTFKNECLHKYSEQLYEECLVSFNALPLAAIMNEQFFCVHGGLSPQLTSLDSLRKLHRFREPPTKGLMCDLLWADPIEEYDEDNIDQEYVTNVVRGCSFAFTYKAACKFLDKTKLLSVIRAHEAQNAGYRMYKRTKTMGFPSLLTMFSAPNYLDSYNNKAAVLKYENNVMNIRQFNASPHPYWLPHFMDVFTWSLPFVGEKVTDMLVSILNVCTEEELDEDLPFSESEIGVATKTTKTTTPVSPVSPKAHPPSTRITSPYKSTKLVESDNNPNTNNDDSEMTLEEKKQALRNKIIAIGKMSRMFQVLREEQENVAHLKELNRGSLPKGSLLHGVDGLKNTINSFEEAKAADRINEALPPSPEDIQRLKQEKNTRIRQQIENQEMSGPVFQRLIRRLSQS", "experiment": "blockers of CaCl2-induced CDRE-lacZ signaling – S. cerevisiae, luminescence, secondary, dose response (AID 2388);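 further: yeast reporter cells carrying a calcineurin-responsive lacZ construct stimulated with calcium chloride; luminescent beta-galactosidase reporter signal in whole cells rather than isolated phosphatase activity; potency for inhibition where a drop in reporter signal means calcineurin blockade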", "format": "functional, cell-based"}, "[13]": {"molecular_target": "ATP-dependent molecular chaperone HSP82 (Candida albicans (strain WO-1) (Yeast), UniProt C4YTQ8)", "sequence (C4YTQ8 whole entry)": "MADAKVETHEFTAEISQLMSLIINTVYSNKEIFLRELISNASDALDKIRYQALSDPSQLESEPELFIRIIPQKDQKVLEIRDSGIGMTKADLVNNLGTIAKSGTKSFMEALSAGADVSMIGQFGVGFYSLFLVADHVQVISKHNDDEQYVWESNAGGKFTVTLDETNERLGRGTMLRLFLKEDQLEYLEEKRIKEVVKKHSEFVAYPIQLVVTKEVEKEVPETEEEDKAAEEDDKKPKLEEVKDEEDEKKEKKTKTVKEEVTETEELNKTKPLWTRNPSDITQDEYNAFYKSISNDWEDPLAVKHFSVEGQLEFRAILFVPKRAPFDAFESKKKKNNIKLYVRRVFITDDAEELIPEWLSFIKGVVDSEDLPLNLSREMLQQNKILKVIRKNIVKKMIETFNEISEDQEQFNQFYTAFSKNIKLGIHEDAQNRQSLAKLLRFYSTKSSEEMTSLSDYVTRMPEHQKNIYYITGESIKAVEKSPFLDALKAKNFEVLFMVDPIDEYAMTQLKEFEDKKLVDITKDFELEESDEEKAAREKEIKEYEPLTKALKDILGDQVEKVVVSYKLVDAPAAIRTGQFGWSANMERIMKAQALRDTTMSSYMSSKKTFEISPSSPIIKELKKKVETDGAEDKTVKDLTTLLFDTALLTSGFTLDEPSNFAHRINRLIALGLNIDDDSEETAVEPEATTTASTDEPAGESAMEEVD", "experiment": "steroid-induced GRE reporter decrease in yeast – S. cerevisiae, luminescence, Hsp90 inhibitor project, dose response (AID 2400);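 further: beta-galactosidase luminescence from glucocorticoid response element reporter as proxy for Hsp90 function; inhibitor potency where signal loss means Hsp90 inhibition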", "format": "functional, cell-based"}, "[14]": {"experiment": "Luminescence Cell-Based Dose Response HTS to Identify Inhibitors of 5'UTR Stem-Loop Driven Prion Protein mRNA Translation in H4 Neuroglioblastoma Cells. [Related pubchem assays: 1827 (Project Summary), 1813 (Primary HTS)]", "format": "functional"}, "INS1 [15]": {"system": "INS1", "experiment": "INS-1E mitochondrial potential rescue under cytokines – cell-based, JC-1 fluorescence ratio, dry powder, dose response (AID 488931)", "format": "functional", "settings": "Rattus norvegicus"}, "INS1 [16]": {"system": "INS1", "experiment": "suppression of cytokine-induced beta-cell apoptosis – INS-1E, caspase luminescence, dry powder, beta-cell apoptosis inhibitor project, dose response (AID 488848)", "format": "functional, cell-based", "settings": "Rattus norvegicus"}, "[17]": {"experiment": "Primary Beta Cell Apoptosis assay Measured in Cell-Based System Using Plate Reader - 2061-07_Inhibitor_Dose_DryPowder_Activity_Set2. [Related pubchem assays (depositor defined):AID435007]", "format": "functional", "settings": "Homo sapiens"}, "INS1 [18]": {"system": "INS1", "experiment": "Primary beta islet insulin ELISA Measured in Cell-Based System Using Plate Reader - 2061-09_Inhibitor_Dose_DryPowder_Activity. [Related pubchem assays (depositor defined):AID435007]", "format": "functional", "settings": "Rattus norvegicus"}, "[19]": {"experiment": "suppression of NO production in INS-1E cells – cell-based, Griess absorbance, dry powder, set 3, dose response (AID 488870)", "format": "functional, Rattus norvegicus"}, "INS1 [20]": {"system": "INS1", "experiment": "Glucose-induced Insulin secretion ELISA Measured in Cell-Based System Using Plate Reader - 2061-05_Inhibitor_Dose_DryPowder_Activity. [Related pubchem assays (depositor defined):AID435007]", "format": "functional", "settings": "Rattus norvegicus"}, "Vero [21]": {"system": "Vero", "experiment": "cells", "format": "functional, cell-based", "settings": "Chlorocebus sabaeus"}, "[22]": {"molecular_target": "5-hydroxytryptamine receptor 5A (Homo sapiens, UniProt P47898)", "experiment": "Counterscreen for agonists of OPRM1-OPRD1 heterodimerization: luminescence-based cell-based high throughput dose response assay to identify agonists of 5-hydroxytryptamine (serotonin) 5A receptor (HTR5A). [Related pubchem assays (depositor defined):AID504326, AID504355, AID504692, AID504904, AID504905]", "format": "functional"}, "Vero [23]": {"system": "Vero", "experiment": "cells", "format": "functional", "settings": "Chlorocebus sabaeus"}, "[24]": {"molecular_target": "Opioid receptors; mu & delta (Homo sapiens, UniProt P41143+P35372)", "experiment": "OPRM1-OPRD1 heterodimer agonist potency – cell-based, luminescence, dose response (AID 588407)", "format": "functional"}, "[25]": {"molecular_target": "Delta-type opioid receptor (Homo sapiens, UniProt P41143)", "sequence (P41143 whole entry)": "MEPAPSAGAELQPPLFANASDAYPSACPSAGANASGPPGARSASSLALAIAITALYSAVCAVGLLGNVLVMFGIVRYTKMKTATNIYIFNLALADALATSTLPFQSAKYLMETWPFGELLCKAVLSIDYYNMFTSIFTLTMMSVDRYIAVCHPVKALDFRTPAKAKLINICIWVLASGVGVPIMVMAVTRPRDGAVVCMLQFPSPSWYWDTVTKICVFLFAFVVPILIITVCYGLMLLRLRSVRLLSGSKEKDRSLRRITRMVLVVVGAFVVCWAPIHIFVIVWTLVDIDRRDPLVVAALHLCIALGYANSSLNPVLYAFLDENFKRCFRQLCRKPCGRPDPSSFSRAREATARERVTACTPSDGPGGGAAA", "experiment": "Counterscreen for agonists of heterodimerization of the mu 1 (OPRM1) and delta 1 (OPRD1) opioid receptors: Luminescence-based cell-based high throughput dose response assay to identify agonists of OPRD1 homodimerization. [Related pubchem assays (depositor defined):AID504326, AID504355, AID504692, AID504904, AID504905]", "format": "functional"}, "Mu-type opioid receptor": {"molecular_target": "Mu-type opioid receptor (Homo sapiens, UniProt P35372)", "sequence (P35372 whole entry)": "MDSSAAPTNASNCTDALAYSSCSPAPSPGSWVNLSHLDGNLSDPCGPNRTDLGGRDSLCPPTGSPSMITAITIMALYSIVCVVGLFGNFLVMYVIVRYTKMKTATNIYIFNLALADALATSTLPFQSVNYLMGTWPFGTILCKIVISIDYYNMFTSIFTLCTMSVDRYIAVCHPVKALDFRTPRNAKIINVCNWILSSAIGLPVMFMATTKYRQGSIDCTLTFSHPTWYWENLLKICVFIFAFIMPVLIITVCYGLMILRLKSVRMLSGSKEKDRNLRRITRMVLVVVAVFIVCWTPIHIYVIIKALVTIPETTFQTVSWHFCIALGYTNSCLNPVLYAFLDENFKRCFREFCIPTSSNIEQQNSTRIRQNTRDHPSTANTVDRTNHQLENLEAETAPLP", "experiment": "Counterscreen for agonists of heterodimerization of the mu 1 (OPRM1) and delta 1 (OPRD1) opioid receptors: Luminescence-based cell-based high throughput dose response assay to identify agonists of OPRM1 homodimerization.", "format": "functional"}},
  "note": "Activity calls are given as the source filed them.",
  "data": [
    {"smiles": "CCOc1ccc(N2C(=O)c3cccnc3C2Nc2ccc(C)c(C)c2)cc1", "note": "(stereo not drawn)", "values": [
      {"measurement": "IC50", "setting": "Hexokinase-1", "result": "> 80 µM (inactive)"},
      {"measurement": "IC50", "setting": "Hexokinase HKDC1", "result": "77.1 µM (inactive)"}
    ]},
    {"smiles": "CCN(c1ccccc1)S(=O)(=O)c1ccc(Cl)c(NC(=O)Nc2ccc(Cl)cc2C#N)c1", "values": [
      {"measurement": "IC50", "setting": "[1]", "result": "8.98 µM (active)"},
      {"measurement": "AC50", "setting": "HEK293", "result": "4.55 µM (active)"}
    ]},
    {"smiles": "COc1ccc(CCNc2ncnc3sc(C)cc23)cc1OC", "values": [
      {"measurement": "IC50", "setting": "[2]", "result": "> 80 µM (inactive)"},
      {"measurement": "AC50", "setting": "INS1 [3]", "result": "0.902 µM (active)"},
      {"measurement": "EC50", "setting": "[4]", "result": "> 120 µM (not active)"},
      {"measurement": "IC50", "setting": "Jurkat", "result": "45.3 µM (inactive)"},
      {"measurement": "EC50", "setting": "cells", "result": "> 29.9 µM (inactive)"},
      {"measurement": "EC50", "setting": "[5]", "result": "> 150 µM (inactive)"},
      {"measurement": "AC50", "setting": "[6]", "result": "< 0.26 µM (active)"},
      {"measurement": "IC50", "setting": "Galanin receptor type 3", "result": "0.43 µM (active)"},
      {"measurement": "IC50", "setting": "[7]", "result": "2.21 µM (active)"},
      {"measurement": "AC50", "setting": "[8]", "result": "0.796 µM (active)"},
      {"measurement": "EC50", "setting": "[9]", "result": "> 120 µM (not active)"},
      {"measurement": "EC50", "setting": "[10]", "result": "0.767 µM (active)"},
      {"measurement": "AC50", "setting": "[11]", "result": "0.739 µM (active)"},
      {"measurement": "EC50", "setting": "[12]", "result": "> 180 µM (inactive)"},
      {"measurement": "EC50", "setting": "[13]", "result": "> 150 µM (inactive)"},
      {"measurement": "EC50", "setting": "[14]", "result": "> 120 µM (not active)"}
    ]},
    {"smiles": "C[C@@H]1CN([C@@H](C)CO)C(=O)c2cccc(NC(=O)Nc3cccc4ccccc34)c2O[C@H]1CN(C)S(=O)(=O)c1ccc2c(c1)OCCO2", "values": [
      {"measurement": "AC50", "setting": "INS1 [15]", "result": "83.8 µM (active)"},
      {"measurement": "AC50", "setting": "INS1 [16]", "result": "2.22 µM (active)"},
      {"measurement": "AC50", "setting": "[17]", "result": "6.7 µM (active)"},
      {"measurement": "AC50", "setting": "INS1 [18]", "result": "< 0.5 µM (active)"},
      {"measurement": "AC50", "setting": "[19]", "result": "33.7 µM (active)"},
      {"measurement": "AC50", "setting": "[19]; Rattus norvegicus", "result": "57.6 µM (active)"},
      {"measurement": "AC50", "setting": "INS1 [20]", "result": "4.79 µM (active)"}
    ]},
    {"smiles": "CO[C@H]1[C@H](O)[C@H](O[C@H]2CC[C@@]3(C=O)[C@H](CC[C@@H]4[C@@H]3CC[C@]3(C)[C@@H](C5=CC(=O)OC5)CC[C@]43O)C2)O[C@@H](C)[C@@H]1O", "note": "[PERUVOSIDE]", "values": [
      {"measurement": "IC50", "setting": "Vero [21]", "result": "< 0.05 µM (active)"},
      {"measurement": "EC50", "setting": "[22]", "result": "> 92.5 µM (inactive)"},
      {"measurement": "CC50", "setting": "Vero [23]", "result": "< 0.05 µM (active)"},
      {"measurement": "EC50", "setting": "[24]", "result": "> 0.1268", "unit": "µM"},
      {"measurement": "EC50", "setting": "[25]", "result": "> 92.5 µM (inactive)"},
      {"measurement": "EC50", "setting": "Mu-type opioid receptor", "result": "> 92.5 µM (inactive)"}
    ]}
  ]
}
